# Laboratory results reported in the SangsterLogP compilation.
# Test: method code SF-AS, from Dallet, P.; Dubost, J.; Colleter, J.; Audry, E.; Creuzet, M. (1985). QSAR in a series of alpha-adrenolitic molecules: optimization of physicochemical parameters. Eur J Med Chem, 20(6)551-557.
# Conditions: not given
row,SMILES,logP
1,Cc1cc(OCCN(C)C)c(C(C)C)cc1O,2.93
2,Cc1cc(OCCN(C)C)c(C(C)C)cc1OC1CCCCC1=O (stereo not drawn),3.63
3,CC(=O)Oc1cc(C(C)C)c(OCCN(C)C)cc1C,3.17
4,CNCCOc1cc(C)c(O)cc1C(C)C,2.35

# The next lines start with the values.
row,logP,SMILES
1,3.79,Cc1ccc(C(C)C)c(OCCN(C)C)c1
2,3.12,COc1cccc(OC)c1OCCN(C)CCOc1cc(C)c(O)cc1C(C)C

# Test: not given
# Conditions: not given
row,logP,SMILES
1,0.19,CC(C)CC(N)=O
2,0.9,CCC(C)(C)N
3,-0.05,CC(C)(O)C(C)(C)O
4,-0.43,OCCCCCO

row,SMILES,logP
1,CC(O)CCO (stereo not drawn),-0.79

# Test: not given
# Conditions: not given
# Remark: another data set of the same source
row,logP,SMILES
1,3.24,O=C(CCN1CCC(O)(c2ccc(Cl)cc2)CC1)c1ccc(F)cc1
2,4.17,OC1(c2ccc(Cl)cc2)CCN(CCCSc2ccc(F)cc2)CC1
3,3.81,O=C(CCCCN1CCC(O)(c2ccc(Cl)cc2)CC1)c1ccc(F)cc1
4,3.26,OC(CCCN1CCC(O)(c2ccc(Cl)cc2)CC1)c1ccc(F)cc1 (stereo not drawn)
5,4.16,O=C(CCCCCN1CCC(O)(c2ccc(Cl)cc2)CC1)c1ccc(F)cc1
6,4.2,CC(C)c1ccc(C(=O)CCCN2CCC(O)(c3ccc(Cl)cc3)CC2)cc1

# Test: not given
# Conditions: not given
# Remark: another data set of the same source
row,SMILES,logP
1,O=[N+]([O-])c1cc(Cl)cc(Cl)c1,3.13
2,Cc1ccc(Cl)cc1[N+](=O)[O-],3.05
3,Cc1ccc([N+](=O)[O-])cc1C,2.91
4,Cc1cccc([N+](=O)[O-])c1C,2.83
5,O=[N+]([O-])c1cccc(Cl)c1Cl,3.01

# Test: not given
# Conditions: not given
# Remark: another data set of the same source
row,SMILES,logP
1,Nc1ccccc1Cl,1.74
2,Nc1cc(Cl)c(Cl)c(Cl)c1Cl,3.94
3,ClC(Cl)(Cl)C(Cl)(Cl)Cl,3.82
4,Cc1ccc(Cl)cc1,3.42
5,Cc1c(Cl)cccc1Cl,4.29

# Test: not given
# Conditions: not given
# Remark: another data set of the same source
row,logP,SMILES
1,-2.22,CC(=O)Nc1c(I)c(C(=O)NC(CO)CO)c(I)c(C(=O)NC(CO)CO)c1I
2,-1.84,CC(=O)N(CC(O)CO)c1c(I)c(C(=O)NCCO)c(I)c(C(=O)NCCO)c1I (stereo not drawn)
3,-2.13,CC(=O)N(C)c1c(I)c(C(=O)NCC(O)CO)c(I)c(C(=O)NCC(O)CO)c1I (stereo not drawn)
4,-2.33,CC(=O)N(CCO)c1c(I)c(C(=O)N(C)CC(O)CO)c(I)c(C(=O)N(C)CC(O)CO)c1I (stereo not drawn)
5,-2.14,CC(=O)Nc1c(I)c(C(=O)N(C)CC(O)CO)c(I)c(C(=O)N(C)CC(O)CO)c1I (stereo not drawn)
6,-2.4,CC(=O)N(CCO)c1c(I)c(C(=O)NCC(O)CO)c(I)c(C(=O)NCC(O)CO)c1I (stereo not drawn)

# Test: method code SF-GLC, from DOI: 10.1016/s0045-6535(02)00841-x, PMID: 12615110
# Conditions: not given
row,SMILES,logP
1,Brc1ccc(Oc2ccccc2Br)c(Br)c1,5.74
2,Brc1ccc(Oc2ccc(Br)cc2Br)cc1,5.94
3,Brc1ccc(Oc2cc(Br)c(Br)cc2Br)c(Br)c1,7.32
4,Brc1ccc(Oc2ccc(Br)c(Br)c2Br)c(Br)c1,7.37
5,Brc1cc(Br)c(Oc2cc(Br)c(Br)cc2Br)cc1Br,7.9

# Test: method code SF-GLC, from DOI: 10.1080/03086648508073361
# Conditions: not given
row,SMILES,logP
1,CN(C)P(=O)(N1CCCC1)N1CCCC1,1.88
2,CCN(CC)P(=O)(N(CC)CC)N(CC)CC,2.53
3,O=P(N1CCCC1)(N1CCCC1)N1CCCC1,1.67
4,CN(C)P(=O)(N(C)C)N1CCCC1,0.82
5,CN(C)P1(=O)N(C)CCN1C,0.02

# Test: from Pratesi, P.; Villa, L.; Ferri, V.; DeMicheli, C.; Grana, E.; Grieco, C.; Silipo, C.; Vittoria, A. (1979). On the additive-constitutive properties of substituent hydrophobic parameters in a set of …
# Conditions: not given
row,SMILES,logP
1,c1ccc(C2CO2)cc1 (stereo not drawn),1.84
2,OCCNc1ccccc1,0.82
3,C=CC#N,0.25
4,O=C(O)CCCC(=O)O,-0.29
5,CC(=O)CCC(=O)O,-0.49

# Test: method code SF-AS, from DOI: 10.1021/jm00254a011, PMID: 4845376
# Conditions: not given
row,logP,SMILES
1,1.19,CSC1=NCCN1c1ccc([N+](=O)[O-])o1
2,0.25,O=C1NCCN1c1ccc([N+](=O)[O-])o1
3,1.78,CSC1=NCCN1c1ncc([N+](=O)[O-])s1
4,0.91,O=C1NCCN1c1ncc([N+](=O)[O-])s1
5,1.7,O=[N+]([O-])c1cnc(N2CCNC2=S)s1

# Test: not given
# Conditions: not given
# Remark: another data set of the same source
row,logP,SMILES
1,2.59,Brc1ccsc1
2,4.82,O=c1cc(-c2ccccc2)oc2c1ccc1ccccc12
3,4.24,Cc1cc(C)c(C)cc1C

row,SMILES,logP
1,O=[N+]([O-])c1ccc(O)c([N+](=O)[O-])c1,1.79
2,c1ccc(-c2ccc(-c3ccccc3)cc2)cc1,6.03

# Test: method code SF-RC, from DOI: 10.1021/jm301492y, PMID: 23214511
# Conditions: pH 7.4
row,SMILES,logD
1,O=C(NC1CCCCC1)c1cccc(C2=NCCO2)c1,3.01
2,O=C(NC1CCCC1)c1cccc(C2=NCCO2)c1,2.35

# Other lines, results leading:
row,logD,SMILES
1,2.8,O=C(NC1CCCC1)c1ccc(O)c(-c2ccccc2)c1
2,3.42,O=C(NC1CCC1)c1ccc(O)c(-c2ccccc2)c1
3,3.33,CCCCCCNC(=O)c1cccc(C2=NCCO2)c1
4,3.61,NC(=O)c1cccc(-c2cccc(C(=O)NC3CCCCC3)c2)c1

# Test: method code SF-AS, from DOI: 10.1093/chemse/13.4.619
# Conditions: pH 7.2
row,SMILES,logD
1,COC(=O)c1cccnc1,0.72
2,O/N=C/c1cccnc1,0.68
3,c1ccc(-c2cccnc2)nc1,1.46

# The remaining lines, values ahead:
row,logD,SMILES
1,1.58,c1ccc(-c2ccncc2)nc1
2,0.4,COC(=O)c1ccccn1

# Test: not given
# Conditions: not given
# Remark: another data set of the same source
row,logP,SMILES
1,3.13,CCCCCCN1C(=O)NC(Cc2c[nH]c3ccccc23)C1=O (stereo not drawn)
2,2.86,CCCN1C(=O)NC(c2ccccc2)(c2ccccc2)C1=O
3,6.39,CCCCCCN1C(=O)NC(c2ccc(Br)cc2)(c2ccc(Br)cc2)C1=O
4,3.03,O=C1NC(Cc2c[nH]c3ccccc23)C(=O)N1Cc1cccc2ccccc12 (stereo not drawn)
5,6.95,CCCCCCCN1C(=O)NC(c2ccc(Br)cc2)(c2ccc(Br)cc2)C1=O

row,SMILES,logP
1,O=C1NC(c2ccc(Br)cc2)(c2ccc(Br)cc2)C(=O)N1CCN1CCOCC1,4.59

# Test: not given
# Conditions: not given
# Remark: another data set of the same source
row,logP,SMILES
1,1.86,C=C(C)C(=O)OCCCOC(=O)C(=C)C
2,2.79,C=C(C)C(=O)OCC(C)(C)COC(=O)C(=C)C
3,1.22,C=C(C)C(=O)OCCOC(=O)C(=C)C
4,4.92,C=C(C)C(=O)OCCCCCCCC(C)C
5,1.56,C=C(C)C(=O)OCC(F)(F)F

# Test: method code SF-AS, from DOI: 10.1016/s0003-2670(01)80868-0
# Conditions: not given
row,logP,SMILES
1,2.22,CC(C)C(=O)CC(=O)C(C)C
2,1.12,CCC(=O)CC(=O)CC
3,0.14,CC(=O)CC(C)=O
4,2.23,CCCC(=O)CC(=O)CCC
5,1.67,CC(=O)CC(=O)C(C)(C)C

# Test: method code SF-AS, from DOI: 10.1016/0147-6513(87)90041-8, PMID: 3830021
# Conditions: not given
row,logP,SMILES
1,3.9,N#CCCN(CCO)c1ccc(/N=N/c2ccc([N+](=O)[O-])cc2Cl)cc1
2,4,CCCCN(CCOC(C)=O)c1ccc(/N=N/c2c(C#N)cc([N+](=O)[O-])cc2C#N)c(C)c1
3,4,CCCCn1c(=O)c2c(N)c3c(=O)c4ccccc4c(=O)c3c(N)c2c1=O
4,4,CC(=O)Nc1cc(NCC(C)O)c(Cl)cc1/N=N/c1ccc([N+](=O)[O-])cc1Cl (stereo not drawn)
5,3.4,CCn1c(O)c(C#N)c(C)c(/N=N/c2ccc(Cl)cc2[N+](=O)[O-])c1=O
6,4.5,CCCCC(CC)Cn1c(O)c(C#N)c(C)c(/N=N/c2ccccc2[N+](=O)[O-])c1=O (stereo not drawn)

# Test: method code SF-RC, from DOI: 10.1016/j.nucmedbio.2006.06.006, PMID: 16934700
# Conditions: pH 7.4
row,logD,SMILES
1,2.87,Nc1ccc(-c2cc3ccccc3s2)cc1
2,3.46,FCCNc1ccc(-c2cc3ccccc3s2)cc1
3,2.83,FCCOc1ccc(-c2cc3ccccc3s2)cc1
4,3.2,CNc1ccc(-c2cc3ccccc3s2)cc1
5,3.44,CN(C)c1ccc(-c2cc3ccccc3s2)cc1
6,2.99,Oc1ccc(-c2cc3ccccc3s2)cc1

# Test: method code SF-AS, from DOI: 10.1007/bf00165040, PMID: 3033523
# Conditions: pH 7.4
row,SMILES,logD
1,Nc1ncnc2c1nc(Br)n2C1OC2COP(=O)(Oc3ccccc3)OC2C1O (stereo not drawn),1.58
2,CC(C)(C)Sc1nc2c(N)ncnc2n1C1OC2COP(=O)(Oc3ccccc3)OC2C1O (stereo not drawn),2.05

# Results, then the compound that gave them:
row,logD,SMILES
1,2.24,Nc1ncnc2c1nc(Sc1ccc(Cl)cc1)n2C1OC2COP(=O)(OCc3ccccc3)OC2C1O (stereo not drawn)
2,1.62,CSc1nc2c(N)ncnc2n1C1OC2COP(=O)(OCc3ccccc3)OC2C1O (stereo not drawn)
3,1.92,Nc1ncnc2c1nc(Sc1ccccc1)n2C1OC2COP(=O)(OCc3ccccc3)OC2C1O (stereo not drawn)
4,-1.15,Nc1ncnc2c1nc(SCc1ccccc1)n2[C@@H]1O[C@@H]2COP(=O)(O)O[C@H]2[C@H]1O
